Source: patent US20190388437A1, “COMPOSITIONS AND METHODS FOR TREATING BONE AND JOINT INFECTIONS” (priority 2014, published 2019)
In brackets after ≈: the same amount, converted by molar mass.

Assays:
Format in all cases: cell-based
[1] = Synergy testing by the checkerboard method, FA/co-drug; conditions: FA combined with the co-drug
Protocol: CLSI broth microdilution (BMD) and anaerobic agar dilution (AD) methods were performed. Modifications of standard test methods included adding 10% human serum, adjusting the medium pH to 5, 6, and 8, and synergy was assessed by the checkerboard method. Mutational rates to R were determined at 4×.

[2] = system: S. aureus; assay: MIC population distribution, 217 S. aureus Canadian isolates; conditions: 217 Canadian isolates
[3] = system: S. aureus; assay: Reference broth microdilution susceptibility testing, Canadian isolates; conditions: overall S. aureus population
Description: (§1) To determine a contemporary susceptibility (S) spectrum pattern. 153 GP isolates (123 S. aureus, 15 coagulase-negative staphylococci [CoNS] and 15 S. pyogenes [SPYO]) were collected from 5 Canadian medical centers between 2001 and 2006.

[4] = system: S. pyogenes [SPYO]; assay: as above
Description: as §1

[5] = system: S. aureus MRSA (Mec A genotype); assay: Agar dilution MIC against resistant S. aureus; conditions: Staphylococcus aureus
Description: (§2) The in vitro activity of CEM-102 was compared with that of telithromycin, azithromycin, erythromycin, levofloxacin, linezolid, and doxycycline against a total of 145 resistant S. aureus by agar dilution procedures (CLSI, M7-A7, M100-S18). The tested strains included S. aureus MRSA (Mec A genotype; 100 isolates), macrolide-resistant (ermA, B, C genotype or MLSb-resistant; 25), and ciprofloxacin-resistant (gyrA and parC genotype; 20).

[6] = system: ciprofloxacin-resistant (gyrA and parC genotype) S. aureus; assay: Agar dilution MIC against resistant S. aureus; conditions: Staphylococcus aureus
Description: as §2

[7] = system: macrolide-resistant S. aureus (ermA, B, C genotype or MLSb-resistant); assay: Agar dilution MIC against resistant S. aureus; conditions: Staphylococcus aureus
Description: as §2

**Q.** For Cc1onc(-c2ccccc2)c1C(=O)N[C@@H]1C(=O)N2[C@@H]1SC(C)(C)[C@@H]2C(=O)O [Oxacillin], which “Additive (number)” value [1] is on record?
**A.** 1

**Q.** What about the “Antagonism (number)” value [1] of the same compound?
**A.** 0

**Q.** What about the “Indeterminate (number)” value [1] of the same compound?
**A.** 1

**Q.** What about the “Indifferent (number)” value [1] of the same compound?
**A.** 3

**Q.** And the “Synergy Complete (number)” value [1]?
**A.** 0

**Q.** What about the “Synergy Partial (number)” value [1] of the same compound?
**A.** 1

**Q.** With CO[C@H]1/C=C/O[C@@]2(C)Oc3c(C)c(O)c4c(O)c(c(/C=N/N5CCN(C)CC5)c(O)c4c3C2=O)NC(=O)/C(C)=C\C=C\[C@H](C)[C@H](O)[C@@H](C)[C@@H](O)[C@@H](C)[C@H](OC(C)=O)[C@@H]1C [Rifampin] as the compound, how does the “Additive (number)” value [1] read?
**A.** 1

**Q.** And the “Antagonism (number)” value [1]?
**A.** 0

**Q.** And the “Indeterminate (number)” value [1]?
**A.** 0

**Q.** What about the “Indifferent (number)” value [1] of the same compound?
**A.** 0

**Q.** And the “Synergy Complete (number)” value [1]?
**A.** 0

**Q.** What about the “Synergy Partial (number)” value [1] of the same compound?
**A.** 5

**Q.** Which “Additive (number)” value [1] does the source give for CN[C@H](CC(C)C)C(=O)N[C@H]1C(=O)N[C@@H](CC(N)=O)C(=O)N[C@H]2C(=O)N[C@H]3C(=O)N[C@H](C(=O)N[C@H](C(=O)O)c4cc(O)cc(O)c4-c4cc3ccc4O)[C@H](O)c3ccc(c(Cl)c3)Oc3cc2cc(c3O[C@@H]2O[C@H](CO)[C@@H](O)[C@H](O)[C@H]2O[C@H]2C[C@](C)(N)[C@H](O)[C@H](C)O2)Oc2ccc(cc2Cl)[C@H]1O [Vancomycin] here?
**A.** 2

**Q.** And the “Antagonism (number)” value [1]?
**A.** 0

**Q.** What about the “Indeterminate (number)” value [1] of the same compound?
**A.** 0

**Q.** And the “Indifferent (number)” value [1]?
**A.** 4

**Q.** What about the “Synergy Complete (number)” value [1] of the same compound?
**A.** 0

**Q.** What about the “Synergy Partial (number)” value [1] of the same compound?
**A.** 0

**Q.** With CCC[C@@H]1C[C@@H](C(=O)N[C@@H]([C@H]2O[C@H](SC)[C@H](O)[C@@H](O)[C@H]2O)[C@H](C)Cl)N(C)C1 [clindamycin] as the compound, how does the resistance rate [2] read?
**A.** 30.9%

**Q.** What about the R rate [3] of the same compound?
**A.** 28.5%

**Q.** What about the R rate [4] of the same compound?
**A.** 13.3%

**Q.** With Gentamicin as the compound, how does the “Additive (number)” value [1] read?
**A.** 3

**Q.** And the “Antagonism (number)” value [1]?
**A.** 0

**Q.** And the “Indeterminate (number)” value [1]?
**A.** 0

**Q.** And the “Indifferent (number)” value [1]?
**A.** 1

**Q.** What about the “Synergy Complete (number)” value [1] of the same compound?
**A.** 1

**Q.** And the “Synergy Partial (number)” value [1]?
**A.** 1

**Q.** With CC[C@H]1OC(=O)[C@H](C)[C@@H](O[C@H]2C[C@@](C)(OC)[C@@H](O)[C@H](C)O2)[C@H](C)[C@@H](O[C@@H]2O[C@H](C)C[C@H](N(C)C)[C@H]2O)[C@](C)(O)C[C@@H](C)C(=O)[C@H](C)[C@@H](O)[C@]1(C)O [erythromycin] as the compound, how does the resistance rate [2] read?
**A.** 52.1%

**Q.** And the R rate [3]?
**A.** 52.0%

**Q.** And the R rate [4]?
**A.** 20.0%

**Q.** What about the MIC90 [5] of the same compound?
**A.** > 32 µg/mL

**Q.** What about the MIC90 [6] of the same compound?
**A.** > 32 µg/mL

**Q.** What about the MIC90 [7] of the same compound?
**A.** > 32 µg/mL

**Q.** Which results are given for C[C@H]1COc2c(N3CCN(C)CC3)c(F)cc3c(=O)c(C(=O)O)cn1c23 [Levofloxacin]?
**A.** Additive (number) [1]: 0; Antagonism (number) [1]: 0; Indeterminate (number) [1]: 2; Indifferent (number) [1]: 4; Synergy Complete (number) [1]: 0; Synergy Partial (number) [1]: 0; MIC90 [5]: 16 µg/mL (≈ 44.3 µM); MIC90 [6]: > 32 µg/mL; MIC90 [7]: 4 µg/mL (≈ 11.1 µM)

**Q.** What does the source list for C[C@H]1c2cccc(O)c2C(=O)C2=C(O)[C@]3(O)C(=O)C(C(N)=O)=C(O)[C@@H](N(C)C)[C@@H]3[C@@H](O)[C@@H]21 [doxycycline]?
**A.** MIC90 [5]: 1 µg/mL (≈ 2.25 µM); MIC90 [6]: 1 µg/mL (≈ 2.25 µM)

**Q.** Which MIC90 [5] does the source give for CC(=O)NC[C@H]1CN(c2ccc(N3CCOCC3)c(F)c2)C(=O)O1 [linezolid] here?
**A.** 2 µg/mL (≈ 5.93 µM)

**Q.** What about the MIC90 [6] of the same compound?
**A.** 2 µg/mL (≈ 5.93 µM)

**Q.** What about the MIC90 [7] of the same compound?
**A.** 2 µg/mL (≈ 5.93 µM)

**Q.** For CC[C@H]1OC(=O)[C@H](C)C(=O)[C@H](C)[C@@H](O[C@@H]2O[C@H](C)C[C@H](N(C)C)[C@H]2O)[C@](C)(OC)C[C@@H](C)C(=O)[C@H](C)[C@H]2N(CCCCn3cnc(-c4cccnc4)c3)C(=O)O[C@]12C [telithromycin], which MIC90 [5] is on record?
**A.** 0.06 µg/mL (≈ 0.0739 µM)

**Q.** What about the MIC90 [6] of the same compound?
**A.** 0.06 µg/mL (≈ 0.0739 µM)

**Q.** And the MIC90 [7]?
**A.** 4 µg/mL (≈ 4.93 µM)

**Q.** Which results are given for CC[C@H]1OC(=O)[C@H](C)[C@@H](O[C@H]2C[C@@](C)(OC)[C@@H](O)[C@H](C)O2)[C@H](C)[C@@H](O[C@@H]2O[C@H](C)C[C@H](N(C)C)[C@H]2O)[C@](C)(O)C[C@@H](C)CN(C)[C@H](C)[C@@H](O)[C@]1(C)O [azithromycin]?
**A.** MIC90 [5]: > 32 µg/mL; MIC90 [6]: 16 µg/mL (≈ 21.4 µM); MIC90 [7]: > 32 µg/mL
